Data reported in patent US10988429B2, “Quinochalcone compound and uses thereof for treating cancer or inflammation” (CHON THERAPEUTICS INC., LTD., priority 2017, dated 2021).

Tests used:
mice melanoma B16 cells = assay: B16 tumor-bearing C57 mice, HB-48 versus DMF (Example 3); type: in vivo, mouse; settings: intratumor injection 5 mg/kg every two days for 10 days
Protocol: Establishment of tumor-bearing mice model: 1×10^5 mice melanoma B16 cells were transplanted into 4˜6 weeks old C57BL/C mice (C57 mice). The weight of each mouse was about 20 g. Tumors were visible on day 7. Mice were treated as follows when the tumor sizes were 5 mm×5 mm. • Control group 1 (PBS): Intratumor injection with PBS. • Experiment group 2 (HB-48): Intratumor injection with HB-48 at 5 mg/kg every two days for 10 days. • Experiment group 3 (DMF): Intratumor injection with DMF with 5 mg/kg every two days for 10 days.
Tumor sizes were recorded daily.

[1] = tested on: A375, B16, MP-1, MCF-7, HL-60, K562 and ALL-1 cells; assay: 3D gel culture, number of colonies, HB-48 alone (Example 2); type: cell-based, human; mouse (B16); settings: 3D culture; HB-48 1, 5, 10, 20 or 50 μmol/ml
Protocol: The following treatments were added to cultures of viable cells. • Control group 1 (Medium): RPMI-1640 medium supplemented with glutamine. • Experiment group1 (HB-48): HB-48 was added to cells at a final concentration of 1 μmol/ml, 5 μmol/ml, 10 μmol/ml, 20 μmol/ml, or 50 μmol/ml in Medium.
The day of drug treatment was recorded as day 0. […] The size of colonies in group control on day 2 is served as control.

[2] = tested on: PD-1 expression in human peripheral blood CD8+ T cells; assay: PD-1 expression in peripheral blood CD8+ T cells of breast cancer patients (Example 10); type: cell-based; settings: resting CD8+ T cells of breast cancer patients; HB-48 10 μM; 48 hours; compared with DMF 10 μM
Protocol: Mononuclear cells were obtained from peripheral blood of breast cancer patients using Ficoll. CD8+ T cells were sorted by magnetic beads and plated on U-bottom 96-well plates (100,000 cells/well) supplemented with RPMI-1640 supplemented with 10 ng/mL human IL-2. Dosing by the following groups: • Control group 1 (PBS): medium plus PBS. • Experimental group 2 (DMF): DMF 10 μM was added to the medium. • Experimental group 3 (HB-48): HB-48 10 μM was added to the medium.
(§1) PD-1 expression levels were measured by flow cytometry in each group of T cells at 48 hours.

[3] = tested on: A375, B16, MP-1, MCF-7, HL-60, K562 and ALL-1 cells; assay: 3D gel culture, clone size, HB-48 alone (Example 1); type: cell-based, human; mouse (B16); settings: 3D culture; HB-48 1, 5, 10, 20 or 50 μmol/ml; 48 and 96 hours
Protocol: 3D gel technology involves culturing cells in a gel-like matrix. Studies in our lab have shown that cancer cells grown using 3D technology behave more like cancers found in vivo, as cancer cells grown using 3D technology display strong proliferative ability, higher drug resistance, stronger tumorigenicity and greater far-end invasion transfer ability than cancer cells cultured using traditional methods. The following treatments were added to 3D cultures of viable cells. • Control group 1 (Medium): RPMI-1640 medium supplemented with glutamine. • Experiment group1 (HB-48): HB-48 was added to cells at a final concentration of 1 μmol/ml, 5 μmol/ml, 10 μmol/ml, 20 μmol/ml, or 50 μmol/ml in Medium.
Dosing drugs was recorded as day 0. Clone size was determined by taking photographic images 48 and 96 hours after dosing. ImageJ software was used to analyze the size of the clones. The clone sizes in different groups were normalized to the control group on the second day.

Kyn transporter PAT4 = assay: Expression of Kyn transporter PAT4 in activated human CD8+ T cells, quantitative PCR (Example 10); type: cell-based; settings: activated CD8+ T cells of breast cancer patients; Kyn 200 μM with or without HB-48 10 μM; 48 hours
Protocol: (§2) Mononuclear cells were obtained from peripheral whole blood of patients with breast cancer using Ficoll. CD8+ T cells were sorted by magnetic beads and plated on 96-well U-shaped bottom plates (100,000 cells/well). T cells were activated by anti-CD3/CD28 magnetic beads. Media was RPMI-1640 plus 10 ng/mL human IL-2. Dosing by the following groups: • Control group 1 (PBS): medium and PBS. • Experimental group 2 (Kyn): Kyn 200 μM was added to the medium. • Experimental group 3 (Kyn+DMF): Kyn 200 μM and DMF 10 μM were added to the medium simultaneously. • Experimental group 4 (Kyn+HB-48): Kyn 200 μM and HB-48 10 μM were added to the medium simultaneously.
Each group of T cells RNA was extracted after 48 hours, and the expression of PAT4 was detected by fluorescence quantitative PCR.

[4] = tested on: OVA-B16 cells co-cultured with OT-1 CD8+ T cells; assay: Apoptosis of OVA-B16 co-cultured with pretreated OT-1 CD8+ T cells (Example 8); type: cell-based, mouse; settings: T cells pretreated with HB-48 10 μM for 24 hours; co-culture ratio 1 to 10; 4 hours
Protocol: Spleen CD8+ T cells of OT-1 mice were obtained by magnetic bead sorting, seeded in a U-shaped bottom 96-well plate (100,000 cells/well) and treated as follows. • Control group 1 (PBS): medium plus PBS. • Experimental group 2 (DMF): DMF 10 μM was added to the medium. • Experimental group 3 (HB-48): HB-48 10 μM was added to the medium.
After pretreatment of T cells for 24 hours, 3D cultured OVA-B16 was co-cultured with OT-1 CD8+ T cells at a ratio of 1 to 10, and the apoptosis of OVA-B16 cells was detected by flow cytometry after 4 hours.

[5] = tested on: PD-1 expression in mouse CD8+ T cells; assay: PD-1 expression on activated mouse CD8+ T cells, flow cytometry (Example 8); type: cell-based; settings: mouse spleen CD8+ T cells activated by anti-CD3/CD28 beads; Kyn 200 μM and HB-48 10 μM; 48 hours
Protocol: Mouse spleen CD8+ T cells were sorted by magnetic beads and seeded in U-bottom 96-well plates (100,000/well) and T cells were activated by anti-CD3/CD28 magnetic beads. The medium was RPMI-1640 plus 10 ng/Mouse IL-2 and […] β-mercaptoethanol. Treatment and dosing is described below: • Control group 1 (PBS): Medium and PBS; • Experimental group 2 (Kyn): Kyn 200 μM was added to the Medium. • Experimental group 3 (Kyn+DMF): Kyn 200 μM and DMF 10 μM were added to the Medium simultaneously. • Experimental group 4 (Kyn+HB-48): Kyn 200 μM and HB-48 10 μM were added to the Medium simultaneously.
as §1

OVA-B16 melanoma cells = assay: OVA-B16 tumor-bearing C57BL/6 mice, adoptive CD8+ T cells and HB-48 (Example 9); type: in vivo, mouse; settings: HB-48 intratumoral 5 mg/kg every two days, 10 times, OT-1 T cells 4×10^6 i.v. every 5 days, 3 times
Protocol: Tumor-bearing mice were constructed: OVA-B16 melanoma cells were seeded on C57BL/6 mice (inoculation amount of 1×10^5 cells) for 4-6 weeks. […] When the tumor size reached 5 mm×5 mm, tumor-bearing mice were treated as follows: • Control group 1 (PBS): Intratumoral injection of PBS only. • Experimental group 2 (CD8+ T cells): Tumor bearing mice were intravenously adoptively transferred with 4×10^6 OVA-specific CD8^+ T-cells (OT-1 T-cells) once every 5 days for 3 times. • Experimental group 3 (DMF): Tumor-bearing mice were intratumorally injected with DMF every two days, a total of 10 times, each dose of 5 mg/kg. • Experimental group 4 (HB-48): Tumor-bearing mice were intratumorally injected with HB-48 every two days, a total of 10 times, each dose of 5 mg/kg. • Experimental group 5 (CD8+ T and DMF): Tumor-bearing mice were intravenously transferred with OT-1 T cells every 5 days for 3 times, and intratumorally injected with DMF every two days for 10 times at the same time. • Experimental group 6 (CD8+ T and HB-48): Tumor-bearing mice were intravenously transfered with OT-1 T cells every 5 days for 3 times, and intratumorally injected with HB-48 every two days for 10 times at the same time.
Tumor length and width were measured daily, and tumor volume changes were calculated.

[6] = tested on: PD-1 expression in human activated CD8+ T cells; assay: Kyn-mediated PD-1 upregulation in activated peripheral blood CD8+ T cells of breast cancer patients (Example 10); type: cell-based; settings: Kyn 200 μM and HB-48 10 μM, 48 hours, compared with DMF 10 μM
Protocol: as §2, §1

[7] = tested on: inflammatory factors of macrophages derived from murine bone marrow; assay: Expression of inflammatory factors in bone marrow-derived macrophages, qPCR (Example 13); type: cell-based, mouse; settings: HB-48 10 μM, 48 h
Protocol: Bone marrow-derived macrophages were obtained from mouse bone marrow cells, RPMI-1640 plus mouse M-CSF 20 ng/mL for 5 days and were treated as follows: • Control group 1 (PBS): medium plus PBS; • Experimental group 2 (HB-48): medium plus HB-48 at a dose of 10 μM. After 48 h, macrophages were collected and the expression of IFN-γ, TNF-α, IL-12p35, IL-12p40 and IL-2 was detected by qPCR in both groups.

Compound: COc1ccc(-c2cc(=O)c3ccccc3o2)cc1OC [DMF, 3′,4′-Dimethoxyflavone, reference compound]
- tumor growth (tumor volume) (mice melanoma B16 cells): could inhibit the tumor growth

Compound: COCOC1=CC(=O)/C(=C(O)/C=C/c2ccc(OCOC)cc2)C(=O)C1(CC=C(C)C)CC=C(C)C [HB-48, 2-[1-hydroxy-3-(4-methoxymethoxyphenyl)allylidene]-5-methoxymethoxy-6,6-diprenylcyclohex-4-ene-1,3-dione]
- colony numbers of solid tumor cells and leukemia cells [1]: effectively reduced the colony numbers of solid tumor cells and leukemia cells in a dose dependent manner
- PD-1 expression in peripheral blood CD8+ T cells [2]: more effectively down-regulated PD-1 expression
- growth (relative clone size) of solid tumor and leukemia cells [3]: significantly inhibited the growth of solid tumor and leukemia cells in a concentration-dependent manner
- expression of PAT4 in peripheral blood CD8+ T cells (Kyn transporter PAT4): can down-regulate the expression of PAT4
- percentage of apoptosis of OVA-B16 tumor cells [4]: significantly increased
- Kyn-mediated upregulation of PD-1 in CD8+ T cells [5]: inhibited Kyn-mediated upregulation of PD-1 in CD8+ T cells more effectively than DMF
- tumor growth (tumor volume) (mice melanoma B16 cells): shows a significant enhanced anticancer effect
- therapeutic effect (tumor volume) (OVA-B16 melanoma cells): had a certain therapeutic effect
- Kyn-mediated upregulation of PD-1 in peripheral blood CD8+ T cells [6]: inhibited Kyn-mediated upregulation of PD-1
- expression of IFN-γ [7]: significantly reduced
- expression of IL-1β [7]: significantly reduced
- expression of IL-12p35 [7]: significantly reduced
- expression of IL-12p40 [7]: significantly reduced
- expression of TNF-α [7]: significantly reduced

Compound: Nc1ccccc1C(=O)CC(N)C(=O)O (stereo not shown) [Kyn, Kynurenine, reference compound]
- expression of PAT4 in peripheral blood CD8+ T cells (Kyn transporter PAT4): can up-regulate the expression of its transporter PAT4
